Measurements as given in US20240166658A1, “PORPHYRIN DERIVATIVES AND USES THEREOF” (University of Tasmania, priority 2021, published 2024).

Key:
[1] = UV-Vis host-guest titration, association constant; assay type: binding
Experimental: (§1) Path length of the quartz cell was 1 cm. For UV-vis titrations, a stock solution of host was prepared (2.2×10^−3 M) in dichloromethane (DCM) and serially diluted to the required concentrations. Working solutions of tetrabutylammonium (TBA) anion salts or guest molecules were prepared in the same manner Host−guest titrations used solutions of guest prepared in the working concentration of host solution, according to the procedure of Thordarson, 2011.
(§2) UV-vis spectroscopic host−guest titrations were performed in accordance with the methodologies of Thordarson, 2011. Solutions of host in dichloromethane were prepared. Solutions of guest were then prepared in the host solution. Aliquots of guest in host solution were added to host solution and sequentially analysed until a known molar equivalent of guest was added. The amount of guest added per aliquot was ascertained by a preliminary screening experiment; strong association constants required smaller molar equivalents so more information could be collected. […] The inverse is true for weaker binding interactions. Molar equivalents between 0.1-5 typically provided adequate information for modelling. The data was then used to simulate binding isotherms using www.supramolecular.org (Hibbert and Thordarson, 2016). The data was fitted to 1:1, 1:2 and 2:1 equilibria making no assumptions about the cooperativity of the binding interactions and modelled using different algorithms. These experiments mainly used the Nelder-Mead (Simplex) method.
UV-Vis spectroscopy binding studies were used to determine the association constant for the host (9)−PFOA complex.
(§3) A host solution of host (9) in dichloromethane was monitored using UV-Vis analysis as 0.5-10 equivalents of each PFAS was added. […] The data was processed using Bindfit isotherm simulators using both Nelder-Mead and L-BFGS-B methods (Thordarson, 2011).
(§4) To highlight any potential binding preferences across the PFCAs from the host molecules, triplicates of host−guest addition titrations were performed using host (9) and the TBA salts of the nine different deprotonated PFCAs.

[2] = UV-Vis host-guest titration, association constant; assay type: binding; remark: listed apart in the source
Experimental: as §1, §2, §3, §4
Host (12) was also modelled for secondary binding interactions in the presence of additional guest (Table 9).

[3] = PFCA guest response across the nine PFCAs (UV-Vis, RGB, one-way ANOVA variance); conditions: dichloromethane
Experimental: Experiments were performed at concentrations that could be monitored by the naked eye for practical sensing of PFAS in the field. Complexes of hosts (9), (11) and (12) were formed with the nine different perfluorocarboxylic acids (PFCAs) shown in Table 2 above and the colours of each host−PFCA complex were photographed in a lightbox and analysed using ImageJ software RGB analysis. Pixels of the solution were chosen at random to provide an RGB value. Multiple RGB values were recorded for each host−PFCA solution, and an average colour can be produced. From those values an RGB parameter was used to give a response value for modelling (Tahir et al., 2016).
After preliminary screenings, UV-Vis spectra were collected before and after the addition of 1 molar equivalent of each PFCA for each host, and the degree of complexation was noted by shifts in the Soret bands and formation of a peak at ca. 650 nm. To eliminate dilution effects, PFCA guest solutions were prepared in the equivalent concentration of host. If there was a notable host−guest interaction for a particular PFCA, the host−guest binding was investigated with more rigorous UV-Vis experiments, binding studies, and further colour analyses. Throughout these investigations, PFOA was considered the “average” PFCA both because of its position in the range of PFCA sizes and because its prevalence is often an indication of broader PFAS contamination. In any experiment where binding was further investigated for a particular PFCA, it was typically replicated with PFOA for comparison.
One-way factorial ANOVA was used to examine the dependence (or independence) of two or more factors affecting the dependent variable concurrently, in the present case the change in absorption, or the change in RGB response across the tested PFCAs, or across the different hosts. This analysis was used to determine the variance in the responses of each host across the different PFCAs. […]

[4] = Colorimetric calibration chart, RGB response to known PFOA concentrations; conditions: PFOA 0.7 ppm, dichloromethane
Experimental: The host molecules were combined with known concentrations of PFOA to provide RGB colour responses, which were used to create a colorimetric calibration chart that could be trialled as an indicator for estimating the total concentration of a range of any PFCAs. Solutions of each host molecule (1.00×10^−5 M) were prepared in dichloromethane. Solutions of PFOA in dichloromethane were prepared across a range of concentrations (0→16 ppm, 4.00×10^−5 M). Each host (2 mL) was combined with each PFOA concentration (1 mL, final concentration 0→1.33×10^−5 M) and photographed under equivalent lighting conditions. The average colour of each solution was then found using ImageJ RGB analysis, and a colour chart was produced.
For this reason, parametrization of the RGB values can be useful for interpreting results. The RGB response parameter can be calculated using the RGB values of the “blank” host solution (Šafranko et al., 2019) and the effective intensities of the individual RGB values of a sample (Tahir et al., 2016):
Here, H, indicates the values for the host solution, and S, indicates the response for a sample containing a PFCA, so that ΔR, ΔG, and ΔB give the colour differences. The RGB parameter is the response due to the relative difference in the RGB intensities:
The RGB values collected for each host with a range of known concentrations of PFOA in dichloromethane were parameterized and used to determine a relationship between concentration of analyte and RGB response values. […] The relationship between RGB response values and concentrations of PFOA could now be tested for accuracy in determining the concentration of any PFCA.

[5] = host (9) in dichloromethane, triplicate, TBA salt and acid, Bindfit
[6] = short, medium and long chain sensor molecules with PFOA

O=C(Nc1ccccc1-c1c2nc(c(-c3ccccc3NC(=O)C(F)(F)C(F)(F)C(F)(F)C(F)(F)C(F)(F)C(F)(F)C(F)(F)F)c3ccc([nH]3)c(-c3ccccc3NC(=O)C(F)(F)C(F)(F)C(F)(F)C(F)(F)C(F)(F)C(F)(F)C(F)(F)F)c3nc(c(-c4ccccc4NC(=O)C(F)(F)C(F)(F)C(F)(F)C(F)(F)C(F)(F)C(F)(F)C(F)(F)F)c4ccc1[nH]4)C=C3)C=C2)C(F)(F)C(F)(F)C(F)(F)C(F)(F)C(F)(F)C(F)(F)C(F)(F)F [host (9), α,α,α,α-5,10,15,20-tetrakis(2-(pentadecafluorooctanoylamino)phenyl)porphyrin]
association constant (Ka) ([1]; host 1.01×10^−6 M in dichloromethane, TBAPFO aliquots, 1:1, Nelder-Mead and L-BFGS-B): ~2.8e+06 M⁻¹ | K value (averaged association constant Ka) [1, 5]: 109574 | K [1, 6]: 1.77e+06 M⁻¹ | K value (averaged association constant Ka) [2, 5]: 1010 | colorimetric response to all nine PFCAs [3]: colorimetric response was visible | ΔE between host and lowest PFOA concentration [4]: 11

O=C(Nc1ccccc1-c1c2nc(c(-c3ccccc3NC(=O)C(F)(F)C(F)(F)C(F)(F)C(F)(F)C(F)(F)C(F)(F)C(F)(F)C(F)(F)C(F)(F)C(F)(F)C(F)(F)F)c3ccc([nH]3)c(-c3ccccc3NC(=O)C(F)(F)C(F)(F)C(F)(F)C(F)(F)C(F)(F)C(F)(F)C(F)(F)C(F)(F)C(F)(F)C(F)(F)C(F)(F)F)c3nc(c(-c4ccccc4NC(=O)C(F)(F)C(F)(F)C(F)(F)C(F)(F)C(F)(F)C(F)(F)C(F)(F)C(F)(F)C(F)(F)C(F)(F)C(F)(F)F)c4ccc1[nH]4)C=C3)C=C2)C(F)(F)C(F)(F)C(F)(F)C(F)(F)C(F)(F)C(F)(F)C(F)(F)C(F)(F)C(F)(F)C(F)(F)C(F)(F)F [host (12), α,α,α,α-5,10,15,20-tetrakis(2-(tricosafluorododecanoylamino)phenyl) porphyrin]
K ([1]; 1 Host:1 Guest binding mode): 1.58 × 10^5 | K11 ([1]; 1 Host:2 Guest binding mode): 1.49 × 10^7 | K12 ([1]; 1 Host:2 Guest binding mode): 1.17 × 10^2 | K [1, 6]: 1.67e+06 M⁻¹ | K ([2]; 1 Host:1 Guest binding mode): 3.76 × 10^4 | K11 ([2]; 1 Host:2 Guest binding mode): 1.76 × 10^6 | K12 ([2]; 1 Host:2 Guest binding mode): 7.92 × 10^4 | K11 ([2]; 2 Host:1 Guest binding mode): 2.37 × 10^5 | K21 ([2]; 2 Host:1 Guest binding mode): 6.69 × 10^4 | colorimetric response to all nine PFCAs [3]: provided a colorimetric response | ΔE between host and lowest PFOA concentration [4]: 24
